Series [1] can be described thus: Side effects in treated animals. Particulars: in vivo.
In a further series the test system is HEK293T cells. Kind of series: TOP/FOP flash luciferase reporter assay. It is filed as cell-based. On the procedure:
Luciferase Assay. 150,000 HEK293T cells were seeded in triplicate per condition and kept for 24 hours at 37° C. with 5% CO2. The cultures were transfected with TOPflash or FOPflash (400 ng), which are firefly-luciferase reporter DNA constructs (Milipore), using LipofectAMINE 2000 (Invitrogen). To control for transfection pRL-TK (10 ng) was included in all transfections. […] Values were normalized by the renilla value from the same well. To statistically compare treatments ANOVA was used.
For orientation: A reporter such as luciferase makes a cellular process visible.

In series [2] the test system is APPswe/PS-1 double transgenic mice. Kind of series: Memory flexibility test (modified Morris Water Maze). In kind it is in vivo. Particulars: 7-month-old APPswe/PS-1 mice, 2.0 mg/kg IP three times per week, four weeks, vs Tg control.
In series [3] the test system is Aβ oligomers in the hippocampus of APPswe/PS-1 mice. Kind of series: Slot blot of Aβ oligomers with A11 antibody. It is filed as in vivo.
For series [4], the system named is tau phosphorylation in the hippocampus of APPswe/PS-1 mice. The experiment in a line: Tau phosphorylation immunoblot (PHF-1, AT8) in treated APPswe/PS-1 mice. It is filed as in vivo. Particulars: hippocampus of 6 month-old APPswe/PS-1 mice, vs untreated. A general note: A western blot detects proteins with antibodies after separation by electrophoresis.
In a further series the test system is GSK-3β. Kind of series: Immunoblot of GSK-3β phosphorylation and β-catenin in Wt hippocampal slices. In kind it is cell-based, mice. On the procedure: Immunoblotting. The hippocampus and cortex of treated or control transgenic mice were dissected on ice and immediately processed has detailed previously (Toledo & Inestrosa 2010). Briefly, hippocampal and cortical tissues were homogenized in RIPA buffer (10 mM Tris-Cl, pH 7.4, EDTA 5 mM, 1% NP-40, 1% sodium deoxycholate, and 1% SDS) supplemented with a protease inhibitor mixture and phosphatase inhibitors (25 mMNaF, […] and 30 μM Na4P207) using a Potter homogenizator and then passed sequentially through different caliber syringes. Protein samples were centrifuged at 14000 rpm at 4° C. twice for 15 min. Protein concentrations were determined using the BCA Protein Assay Kit (Pierce). Samples were resolved by SDS-PAGE followed by immunoblotting on PVDF membranes. Western blot assays were carried out as previously described (Inestrosa et al 2013; Toledo & Inestrosa 2010).
Slice Preparation and Electrophysiology. Hippocampal slices were prepared according to standard procedures previously described (Cerpa et al 2010; VarelaNallar et al 2010). Briefly, transverse slices (350 μm) from the dorsal hippocampus were cut under cold artificial cerebrospinal fluid (ACSF, in mM: 124 NaCl, […], 10 D-glucose, 2.69 KCl, 1.25 KH2PO4 2.5 CaCl2, 1.3 MgSO4, y 2.60 NaHPO4) using a V ibratome (Leica VT 1000s, Germany) and incubated in ACSF for 1 h at room temperature. In all experiments, 10 μM picrotoxin (PTX) was added to suppress inhibitory GABAA transmission (Cuitino et al 2010). Slices were transferred to an experimental chamber (2 ml), superfused (3 ml/min, at 20-22° C.) with gassed ACSF and visualized by trans-illumination with a binocular microscope (MSZ-10, Nikon, Melville, N.Y.). […] The paired pulse facilitation index was calculated by ((R2−R1)/R1), where R1 and R2 were the peak amplitudes of the first and second fEPSP respectively. […] Evoked postsynaptic responses were analyzed off-line, using an analysis software (pClampfit, Molecular Devices), which allowed visual detection of events, computing only those events that exceeded and arbitrary threshold.

[5] abbreviates: Wt hippocampal slices, 10 μM ANDRO for 1 hr.

Structures are written as SMILES. Entries after “also recorded” stand apart in the source; their conditions may differ.

On to `C=C1CC[C@@H]2C(C)(CO)[C@H](O)CC[C@@]2(C)C1C/C=C1/C(=O)OC[C@H]1O` (stereo in doubt) [ANDRO, 3-(2-(Decahydro-6-hydroxy-5-(hydroxymethyl)-5,8a-dimethyl-2-methylenenaphthyl)ethylidene)dihydro-4-hydroxyfuran-2(3H)-one], for which the “side effects in animals” value in series [1] is on record as “seems not to cause side effects in animals”. Moreover, in the series with HEK293T cells (ANDRO 10 μM or 6-BIO 10 nM, 24 h), the TOPflash reporter activity result is reported as “significant increase”. For the same compound, the “increase of luciferase reporter over control” value in the series on HEK293T cells (TOPflash, HEK293T) is reported as 4 fold. In series [2], the “number of trial to criterion of learning” value is “reduction in the number of trial to criterion of learning”. In addition, in series [3] (7 month-old APPswe/PS-1 mice), the “level of Aβ oligomers (A11 slot-blot)” value is listed as “did not show significant changes”. For the same compound, the “levels of Aβ-oligomers (A11 slot blot)” value in series [3] (FIG. 3G (old APPswe/PS-1 mice per legend)) is “did not show significant changes”. In addition, in series [4], the “PHF-1- and AT8-positive tau levels” value is “reduction in PHF-1- and AT8-positive tau levels”. The “levels of β-catenin” value in the series on GSK-3β (Wt hippocampal slices incubated with ANDRO) is “increase in the levels of β-catenin”. Besides, in the series with GSK-3β (setting [5]), the “active form of GSK-3β (Tyr-216 phosphorylation)” value is reported as “decrease of Tyr-216 phosphorylation; also recorded: reduction of the active form” and the “inactive form of GSK-3β (Ser-9 phosphorylation)” value was “increment of Ser-9 phosphorylation; also recorded: increase in the levels of the inactive form”.
